Source: US8728517B2, “Pharmaceutical compositions of entacapone co-micronized with sugar alcohols” (Wockhardt Ltd., priority 2008, dated 2014)

Test: Percent drug release of poorly soluble drugs combined with sugar alcohols
Type: physicochemical
Conditions: for effect on percent release: with sugar alcohols like mannitol or sorbitol, as physical mixture or complex

With `O=C1CCc2ccc(OCCCCN3CCN(c4cccc(Cl)c4Cl)CC3)cc2N1` [aripiprazole] the “effect on percent release” value was “does not make any significant difference”.
In the case of `CCN(CC)C(=O)/C(C#N)=C/c1cc(O)c(O)c([N+](=O)[O-])c1` [entacapone, (E)-2-cyano-3-(3,4-dihydroxy-5-nitrophenyl)-N,N-diethyl-2-propenamide], the “effect on percent drug release” value (co-micronized with sugar alcohols vs formulation not co-micronized with a sugar alcohol) is reported as “significant increase”.
For `CCCCC1=NC2(CCCC2)C(=O)N1Cc1ccc(-c2ccccc2-c2nnn[nH]2)cc1` [irbesartan], the “effect on percent release” value was “does not make any significant difference”.
